Measured values reported in patent US9072770B2, “Aqueous extracts of Anoectochilus spp. kinsenoside and pharmaceutical compositions useful for hepatoprotection” (CHINA MEDICAL UNIVERSITY, priority 2007, dated 2015).
Marks after values point to notes of the source that are not given here.

Test system: BALB/c normal liver (BNL) cells
Experiment: Hydrogen peroxide cytotoxicity assay in BNL cells
Assay type: cell-based, BALB/c mouse
Conditions: then H2O2 2 hours, control 0.69
Description: BALB/c normal liver (BNL) cells were purchased from Bioresources Collection and Research Center (Hsinchu, Taiwan). Cell lines were grown in DMEM (Dulbecco's modified Eagle's medium) with 50 IU/mL penicillin, 50 μg/mL streptomycin, 50 IU/mL amphotericin B and 10% fetal bovine serum. For cytotoxicity assays, cells (5×10^3 cells/well) were plated into 96-well culture plates and allowed to attach overnight. The medium was replaced with fresh medium (as control) or with various concentrations of AFEW, AFEW-1 or kinsenoside for 16 hours. The cells were then washed with PBS and further treated with various doses of hydrogen peroxide (0.125-4.00 μM) for 2 hours. After H2O2 cytotoxic treatment, the percentage of viable cells was determined using a CellTiter 96 Aqueous Non-Radioactive Cell Proliferation Assay kit (Promega, Madison, Wis., USA). Reagent solution (20 μt) was added to each well and incubated at 37° C. in humidified 5% CO2 for 1 hour. Then, the absorbance was measured at 490 nm using a 96-well plate reader (Multiskan Spectrum, Labsystem, Thermo Electron Corporation, Finland).
Data from in vivo experiments were treated by one-way analysis of variance and Dunnett's test was applied. The significance level was set at p[…]00.05. […]

O=C1C[C@@H](OC2OC(CO)C(O)C(O)C2O)CO1 (stereo partly drawn) [Kinsenoside, 3-(R)-3-β-D-glucopyranosyloxybutanolide] was tested, and the “H2O2 LD50 (95% confidence limits)” value (pretreatment 20 μg/mL for 16 hours) was 0.81 (0.74-0.88)^a μM and the “H2O2 LD50 (95% confidence limits)” value (pretreatment 40 μg/mL for 16 hours) was 1.17 (1.01-1.36)^a μM.
